From patent US20080038288A1, “Prevention of damage in hippocampus of fetus/newborn infant due to maternal gestational hypertension” (priority 2006, published 2008)
Marks after values point to notes of the source that are not given here.

Tests used:
[1] = tested on: E21 day rat embryo hippocampal cells; assay: Flow cytometry of hippocampal cell cycle in E21 embryos of L-NAME gestational hypertension rats; format: in vivo; conditions: dam given L-NAME 60 mg/kg/day i.p. plus gastric feeding E14-20, mean ± sx
From the text: (§1) Animal groups and administration of medication. Gestational hypertension (GH) was produced in rats using the L-NAME (a type of NOS inhibitor) method of Yallampalli et al. [Yallampalli et al., Am J Obstet Gynecol., 1993, 169:1316-1320]. Forty mature (11-12 weeks old) SD female rats weighing 200-230 g; 10 mature (13-15 weeks old) SD male rats weighing 250-300 g. At a ratio of […], the rats were paired in cages, on the second day the female rats' vaginal secretions were observed (smear technique) and those containing sperm were considered to be at day 0 of pregnancy (E0). […] L-NAME was given by two injections at a total dose of 60 mg/kg/day. Two hours after each injection, the pregnant rats received gastric feeding of distilled water, L-arginine or GLSs. The GLSs were provided by Kindway International Ltd./Holistol International Ltd., license number GANSPSP04040104. The L-arginine was purchased from the Amresco Company.
(§2) Preparation of histological materials. Some of the pregnant rats were anesthetized at E21 day with an i.p. injection of 1% pentobarbital (35 mg/kg). The embryos were removed from the uterus. […]
Hippocampal tissue separated from E21 day rat embryos was placed in a culture dish and sheared into pieces, 0.01 mol/L phosphate buffered saline (PBS) was added and repeatedly triturated, filtered through a 100-mesh screen, and the single-cell suspension obtained was fixed in 75% alcohol at 4° C. to await testing. Before testing, the extracted cell suspension was centrifuged to remove the supernatant, 100 μL RNase (0.1 mg/L) added, placed at 37° C. for 30 min, after rinsing with normal saline, propidium iodine (PI) stain (0.05 mg/L, 0.03% Triton X-100 0.5 mL) was added, placed at 4° C. protected from light to react for 30 min, then measured. In flow cytometry, a 488 nm laser used Cell Fit software to collect 10,000 cells/specimen cell cycle data was analyzed and one-way ANOVA testing performed for statistical processing.

[2] = tested on: hippocampus dentate gyrus proliferating cells; assay: BrdU labeling, positive cell counts at hippocampus dentate gyrus of P30 rats born to L-NAME rats; format: in vivo, rat; conditions: dam given L-NAME plus gastric feeding E14-20, mean ± sd
From the text: as §1
Preparation of histological materials. Some of the pregnant rats were anesthetized at E21 day with an i.p. injection of 1% pentobarbital (35 mg/kg). The embryos were removed from the uterus. Some were placed in a freezer dish and the hippocampal tissue was removed from the brains of the embryos, placed in an Eppendorf tube and stored at −80° C. to await testing. The rest of the embryonic brains were fixed in a 4% paraformaldehyde solution. […]

hippocampus microvessels = assay: Hippocampal microvessel density, vWF immunohistochemical staining, Weidner counting; format: in vivo, rat; conditions: dam given L-NAME plus gastric feeding E14-20, mean ± sd
From the text: as §1, §2
Hippocampal microvessel density: The Weidner counting method was used to determine the microvessel standard [Weidner et al., Am J Pathol. […] Under a light microscope (200×), microvessel numbers were counted in five visual fields. […]

[3] = tested on: hippocampus CA1, CA3 and DG neurons; assay: Morphometric analysis: hippocampal cell layer thickness and neuron body count, neutral red staining; format: in vivo, rat; conditions: P30 rats, mean ± sd
From the text: as §1
Preparation of histological materials. Some of the pregnant rats were anesthetized at E21 day with an i.p. injection of 1% pentobarbital (35 mg/kg). The embryos were removed from the uterus. Some were placed in a freezer dish and the hippocampal tissue was removed from the brains of the embryos, placed in an Eppendorf tube and stored at −80° C. to await testing. The rest of the embryonic brains were fixed in a 4% paraformaldehyde solution. Another group of pregnant rats went into normal labor, and the young rats were fed and raised until 30 days of […] (P30). Some of the young rats received the preceding pentobarbital anesthesia and their hippocampal tissue was placed in a freezer dish and stored to await testing. The rest of the rats in the P30 group received pentobarbital anesthesia as above, their chests were opened and an aortic cannula inserted through the left ventricle. One group of young rats was first quickly perfused with normal saline and then 4% paraformaldehyde 0.1 mol/L phosphate buffer (PB) (pH 7.4). Then the fixed cerebral corona was continuously frozen and sectioned at a thickness of 15 μm. Sectioning started at the alveus of the hippocampus, one section every 300 μm, and six sections were taken from each brain, for a collection of six sets of sections.
Morphometric analysis. Various cell layer thicknesses from various areas of the hippocampus were measured and a neuron body count obtained. Under a low-magnification microscope, two visual fields were randomly selected from the CA1, CA3 and DG regions. Under a high-magnification microscope (200×), the cell layer thickness was measured and the number of nucleated neuron bodies counted. The cell layer thicknesses or body numbers are the averages of two visual fields.

SMILES: N=C(N)NCCC[C@H](N)C(=O)O [L-arg, L-arginine]
- Percentage of hippocampal cells in G1/G0 phase [1]: 82.74 ± 2.75^h %
- Percentage of hippocampal cells in G2/M phase [1]: 1.44 ± 0.44^i %
- Percentage of hippocampal cells in S phase [1]: 15.34 ± 2.92^g %
- BrdU positive cell counts at hippocampus dentate gyrus [2]: 38.00 ± 1.04^c
- Microvessel density at the hippocampus, E21 (hippocampus microvessels; E21 embryos): 39.80 ± 4.79^e
- Microvessel density at the hippocampus, P30 (hippocampus microvessels; P30 rats): 75.25 ± 3.86^f
- Hippocampal cell layer thickness CA1 ([3]; CA1 area): 115.23 ± 9.49^m μm
- Neuron body counts CA1 ([3]; CA1 area): 31.80 ± 1.15^n num
- Hippocampal cell layer thickness CA3 ([3]; CA3 area): 90.64 ± 6.18^o μm
- Neuron body counts CA3 ([3]; CA3 area): 23.00 ± 0.83^p num
- Hippocampal cell layer thickness DG ([3]; DG area): 64.87 ± 4.42^q μm
